Each molecule was assayed on HCV 1b-377-neo replicon cells (assay: HCV replicon FRET assay). Settings: Hepatitis C virus; HCV replicon; read-out: Activity (EC50).
Type: cell-based
Source text: The HCV replicon cell line was isolated from colonies as described by Lohman, et. al. (Science 1999, 285, 110-113, expressly incorporated by reference in its entirety) and used for all experiments. The HCV replicon has the nucleic acid sequence set forth in EMBL Accession No.: AJ242652, the coding sequence of which is from nt 1801 to 7758.
The coding sequence of the published HCV replicon was synthesized by Operon Technologies, Inc. (Alameda, Calif.), and the fall-length replicon was then assembled in plasmid pGem9zf(+) (Promega, Madison, Wis.) using standard molecular biology techniques. The replicon consists of (i) the HCV 5′ UTR fused to the first 12 amino acids of the capsid protein, (ii) the neomycin phosphotransferase gene (neo), (iii) the IRES from encephalomyocarditis virus (EMCV), and (iv) HCV NS3 to NS5B genes and the HCV 3′ UTR. Plasmid DNAs were linearized with ScaI and RNA transcripts were synthesized in vitro using the T7 MegaScript transcription kit (Ambion, Austin, Tex.) according to manufacturer's directions.
To generate cell lines, 4×10^6 Huh-7 cells (kindly provided by R. Bartenschlager and available from Health Science Research Resources Bank, Japan Health Sciences Foundation) were electroporated (GenePulser System, Bio-Rad) with 10 micrograms(“μg”) of RNA transcript and plated into 100-mm dishes. After 24 hours, selective media containing 1.0 milligrams/milliliter (“mg/mL”) G418 was added and media was changed every 3 to 5 days. […] These cell lines were maintained at 37° C., 5% CO2, 100% relative humidity in DMEM (Cat#11965-084) Gibco-BRL, Rockville, Md., with 10% heat inactivated calf serum (Sigma), 10 mL of 100× penicillin/streptomycin (Cat#15140-122) Gibco-BRL, Rockville, Md., Geneticin (Cat#10131-027) Gibco-BRL, Rockville, Md. at 1 mg/mL. One of the cell lines (deposited as ATCC Accession No. PTA-4583 in the American Type Culture Collection) which had approximately 3,000 copies of HCV replicon RNA/cell was used for development of the assay (HCV 1b-377-neo replicon cells).
To perform the HCV FRET screening assay, 96-well cell culture plates were used. The FRET peptide (Anaspec, Inc., San Jose, Calif.) (Taliani et al., Anal. Biochem. 1996, 240, 60-67, hereby incorporated by reference in its entirety) contains a fluorescence donor, EDANS, near one end of the peptide and an acceptor, DABCYL, near the other end. The fluorescence of the peptide is quenched by […] resonance energy transfer (RET) between the donor and the acceptor, but as the NS3 protease cleaves the peptide the products are released from RET quenching and the fluorescence of the donor becomes apparent.
The assay reagent was made as follows: 5X luciferase cell culture lysis (Cat#E153A, Promega, Madison, Wis.) diluted to 1X with dH2O, NaCl added to […] final, the FRET peptide diluted to 20 micromolar (“μM”) final from a 2 mM stock. HCV 1b-377-neo replicon cells were trypsinized, placed into each well of a 96-well plate and allowed to attach overnight. The next day, the test compounds were added to columns 1 through 10; column 11 was media plus DMSO only, and column 12 contained a titration of interferon or an HCV specific inhibitor as a control (1000 units for A12, B12, 100 units for C12, D12, 10 units for E12, F12 and 1 unit for G12, H12). […] In addition, naïve Huh-7 cells could also be used to replace wells A12 and B12 as a background control.
At subsequent various times (typically 72 hours), 10% final volume Alamar blue (Cat#00-100, Trek Diagnostics, Cleveland, Ohio) was added to each well. The plates were returned to the incubator for 5 hours and then read in the Cytoflour (PE Biosystems) to determine Alamar blue conversion in each well as a measure of cellular toxicity.
`Cc1cc(CC(=O)N2CCC[C@H]2C(=O)Nc2ccc(/C=C/c3ccc(NC(=O)[C@@H]4CCCN4C(=O)CN(C)C)cc3)cc2)on1` [Example 97] showed an EC50 of 0.0001 to 0.09 µM. With `Cc1cc(CC(=O)N2CCC[C@H]2C(=O)Nc2ccc(/C=C/c3ccc(NC(=O)[C@@H]4CCCN4C(=O)C(C)C)cc3)cc2)on1` [Example 98] the EC50 was 0.0001 to 0.09 µM. `CSCC(=O)N1CCC[C@H]1C(=O)Nc1ccc(/C=C/c2ccc(NC(=O)[C@@H]3CCCN3C(=O)Cc3cccs3)cc2)cc1` [Example 99] was tested, and the EC50 was 0.0001 to 0.09 µM. Molecule `COCC(=O)N1CCC[C@H]1C(=O)Nc1ccc(/C=C/c2ccc(NC(=O)[C@@H]3CCCN3C(=O)Cc3cccs3)cc2)cc1` [Example 100] has an EC50 of 0.0001 to 0.09 µM. `CN(C)CC(=O)N1CCC[C@H]1C(=O)Nc1ccc(/C=C/c2ccc(NC(=O)[C@@H]3CCCN3C(=O)Cc3cccs3)cc2)cc1` [Example 101] gave an EC50 of 0.0001 to 0.09 µM. Molecule `CC(C)C(=O)N1CCC[C@H]1C(=O)Nc1ccc(/C=C/c2ccc(NC(=O)[C@@H]3CCCN3C(=O)Cc3cccs3)cc2)cc1` [Example 102] has an EC50 of 0.0001 to 0.09 µM. `CCC(=O)N1CCC[C@H]1C(=O)Nc1ccc(/C=C/c2ccc(NC(=O)[C@@H]3CCCN3C(=O)Cc3cccs3)cc2)cc1` [Example 103] was tested, and the EC50 was 0.0001 to 0.09 µM. Work on `Cn1cccc1CC(=O)N1CCC[C@H]1C(=O)Nc1ccc(/C=C/c2ccc(NC(=O)[C@@H]3CCCN3C(=O)Cc3cccn3C)cc2)cc1` [Example 105] yielded an EC50 of 0.0001 to 0.09 µM. Work on `O=C(Nc1ccc(/C=C/c2ccc(NC(=O)[C@@H]3CCCN3C(=O)Cc3ccccc3F)cc2)cc1)[C@@H]1CCCN1C(=O)Cc1ccccc1F` [Example 106] yielded an EC50 of 0.0001 to 0.09 µM. `O=C(Nc1ccc(/C=C/c2ccc(NC(=O)[C@@H]3CCCN3C(=O)c3ccccc3F)cc2)cc1)[C@@H]1CCCN1C(=O)c1ccccc1F` [Example 107] showed an EC50 of 0.1 to 1 µM. For `O=C(Nc1ccc(/C=C/c2ccc(NC(=O)[C@@H]3CCCN3C(=O)c3cc(F)ccc3F)cc2)cc1)[C@@H]1CCCN1C(=O)c1cc(F)ccc1F` [Example 108], the EC50 was 0.1 to 1 µM. `O=C1N[C@H]2[C@H](CS[C@H]2CCCCC(=O)N2CCC[C@H]2C(=O)Nc2ccc(/C=C/c3ccc(NC(=O)[C@@H]4CCCN4C(=O)Cc4ccccc4)cc3)cc2)N1` [Example 109] gave an EC50 of 0.0001 to 0.09 µM. For `O=C(Nc1ccc(/C=C/c2ccc(NC(=O)[C@@H]3CCCN3C(=O)[C@H]3CCCO3)cc2)cc1)[C@@H]1CCCN1C(=O)[C@H]1CCCO1` [Example 110], the EC50 was 0.0001 to 0.09 µM. Molecule `O=C(Nc1ccc(/C=C/c2ccc(NC(=O)[C@@H]3CCCN3C(=O)[C@@H]3CCCO3)cc2)cc1)[C@@H]1CCCN1C(=O)[C@@H]1CCCO1` [Example 111] has an EC50 of 0.1 to 1 µM. Work on `CC(C)(C)OC(=O)N1CC(C(=O)N2CCC[C@H]2C(=O)Nc2ccc(/C=C/c3ccc(NC(=O)[C@@H]4CCCN4C(=O)C4CN(C(=O)OC(C)(C)C)C4)cc3)cc2)C1` [Example 112] yielded an EC50 of 0.1 to 1 µM. `Cc1cccc(C(=O)N2CCC[C@H]2C(=O)Nc2ccc(/C=C/c3ccc(NC(=O)[C@@H]4CCCN4)cc3)cc2)n1` [Example 113] showed an EC50 of 1 to 10 µM. `Cc1cccc(C(=O)N2CCC[C@H]2C(=O)Nc2ccc(/C=C/c3ccc(NC(=O)[C@@H]4CCCN4C(=O)c4cccc(C)n4)cc3)cc2)n1` [Example 114] was tested, and the EC50 was 0.1 to 1 µM. `O=C(Nc1ccc(/C=C/c2ccc(NC(=O)[C@@H]3CCCN3C(=O)C3Cc4ccccc43)cc2)cc1)[C@@H]1CCCN1` (some centres unmarked) [Example 115] gave an EC50 of 1 to 10 µM. For `O=C(Nc1ccc(/C=C/c2ccc(NC(=O)[C@@H]3CCCN3C(=O)C3Cc4ccccc43)cc2)cc1)[C@@H]1CCCN1C(=O)C1Cc2ccccc21` (some centres unmarked) [Example 116], the EC50 was 1 to 10 µM. `O=C(Nc1ccc(/C=C/c2ccc(N(C(=O)c3cccs3)C(=O)[C@@H]3CCCN3C(=O)c3cccs3)cc2)cc1)[C@@H]1CCCN1C(=O)c1cccs1` [Example 117] showed an EC50 of 0.0001 to 0.09 µM. In the case of `[N-]=[N+]=Nc1ccc(C(=O)N2CCC[C@H]2C(=O)Nc2ccc(/C=C/c3ccc(NC(=O)[C@@H]4CCCN4C(=O)Cc4ccccc4)cc3)cc2)cc1` [Example 118], the EC50 is reported as 0.0001 to 0.09 µM. In the case of `Cn1cccc1C(=O)N1CCC[C@H]1C(=O)Nc1ccc(/C=C/c2ccc(NC(=O)[C@@H]3CCCN3C(=O)c3cccn3C)cc2)cc1` [Example 121], the EC50 is reported as 0.0001 to 0.09 µM. With `CCc1ccccc1C(=O)N1CCC[C@@H]1C(=O)Nc1ccc(/C=C/c2ccc(NC(=O)[C@@H]3CCCN3C(=O)c3ccccc3CC)cc2)cc1` [Example 124] the EC50 was 1 to 10 µM. `Cc1ccccc1C(=O)N1CCC[C@H]1C(=O)Nc1ccc(/C=C/c2ccc(NC(=O)[C@@H]3CCCN3C(=O)c3ccccc3C)cc2)cc1` [Example 125] showed an EC50 of 0.1 to 1 µM. In the case of `[N-]=[N+]=Nc1cccc(CC(=O)N2CCC[C@H]2C(=O)Nc2ccc(/C=C/c3ccc(NC(=O)[C@@H]4CCCN4C(=O)Cc4ccccc4)cc3)cc2)c1` [Example 126], the EC50 is reported as 0.0001 to 0.09 µM. In the case of `[N-]=[N+]=Nc1cccc(CC(=O)N2CCC[C@H]2C(=O)Nc2ccc(/C=C/c3ccc(NC(=O)[C@@H]4CCCN4C(=O)CCCC[C@@H]4SC[C@@H]5NC(=O)N[C@@H]54)cc3)cc2)c1` [Example 127], the EC50 is reported as 0.1 to 1 µM. `[N-]=[N+]=Nc1cccc(CC(=O)N2CCC[C@H]2C(=O)Nc2ccc(/C=C/c3ccc(NC(=O)[C@@H]4CCCN4C(=O)Cc4cccc(N=[N+]=[N-])c4)cc3)cc2)c1` [Example 128] showed an EC50 of 0.0001 to 0.09 µM. Molecule `CC(=O)N1C[C@H](OC(C)(C)C)C[C@H]1C(=O)Nc1ccc(/C=C/c2ccc(NC(=O)[C@@H]3C[C@@H](OC(C)(C)C)CN3C(=O)[C@H]3CCCO3)cc2)cc1` [Example 129] has an EC50 of 0.1 to 1 µM. Work on `CC(C)(C)O[C@@H]1C[C@@H](C(=O)Nc2ccc(/C=C/c3ccc(NC(=O)[C@@H]4C[C@@H](OC(C)(C)C)CN4C(=O)[C@H]4CCCO4)cc3)cc2)N(C(=O)[C@H]2CCCO2)C1` [Example 130] yielded an EC50 of 0.0001 to 0.09 µM. Work on `CC(C)(C)O[C@@H]1C[C@@H](C(=O)Nc2ccc(/C=C/c3ccc(NC(=O)[C@@H]4C[C@@H](OC(C)(C)C)CN4C(=O)Cc4cccnc4)cc3)cc2)N(C(=O)Cc2cccnc2)C1` [Example 131] yielded an EC50 of 0.0001 to 0.09 µM. `CC(=O)N1C[C@H](OC(C)(C)C)C[C@H]1C(=O)Nc1ccc(/C=C/c2ccc(NC(=O)[C@@H]3C[C@@H](OC(C)(C)C)CN3C(=O)Cc3cccnc3)cc2)cc1` [Example 132] showed an EC50 of 0.1 to 1 µM. Work on `COc1ccccc1C(=O)N1CCC[C@H]1C(=O)Nc1ccc(/C=C/c2ccc(NC(=O)[C@@H]3CCCN3C(=O)c3ccccc3OC)cc2)cc1` [Example 133] yielded an EC50 of 1 to 10 µM. `CCCOc1ccccc1C(=O)N1CCC[C@H]1C(=O)Nc1ccc(/C=C/c2ccc(NC(=O)[C@@H]3CCCN3C(=O)c3ccccc3OCCC)cc2)cc1` [Example 134] was tested, and the EC50 was 1 to 10 µM. In the case of `CC(=O)c1ccccc1C(=O)N1CCC[C@H]1C(=O)Nc1ccc(/C=C/c2ccc(NC(=O)[C@@H]3CCCN3C(=O)c3ccccc3C(C)=O)cc2)cc1` [Example 135], the EC50 is reported as 1 to 10 µM. In the case of `CCC(=O)c1ccccc1C(=O)N1CCC[C@H]1C(=O)Nc1ccc(/C=C/c2ccc(NC(=O)[C@@H]3CCCN3C(=O)c3ccccc3C(=O)CC)cc2)cc1` [Example 136], the EC50 is reported as 1 to 10 µM. For `O=C(Nc1ccc(/C=C/c2ccc(NC(=O)[C@@H]3CCCN3C(=O)c3ccccc3-n3cccc3)cc2)cc1)[C@@H]1CCCN1C(=O)c1ccccc1-n1cccc1` [Example 137], the EC50 was 1 to 10 µM. Work on `COc1ccc(Cl)cc1C(=O)N1CCC[C@H]1C(=O)Nc1ccc(/C=C/c2ccc(NC(=O)[C@@H]3CCCN3C(=O)c3cc(Cl)ccc3OC)cc2)cc1` [Example 138] yielded an EC50 of 1 to 10 µM. With `COc1ccc(C)cc1C(=O)N1CCC[C@H]1C(=O)Nc1ccc(/C=C/c2ccc(NC(=O)[C@@H]3CCCN3C(=O)c3cc(C)ccc3OC)cc2)cc1` [Example 139] the EC50 was 0.1 to 1 µM.
